{"source": "patent US20220362386A1", "about": "“LIQUID COMPOSITIONS COMPRISING A LEVODOPA AMINO ACID CONJUGATE AND USES THEREOF” (NeuroDerm, Ltd., priority 2019, published 2022)", "key": {"[1]": {"test": "Comparative formulation tests, physical stability (Tables 32a-c, 33a-c)", "type": "physicochemical", "conditions": "LDAA TFA salt/CD formulation; for Physical stability (visual), Day 1: Day 1, room temperature; for Physical stability (visual), Day 2: Day 2, room temperature; for Physical stability (visual), Day 5: Day 5, room temperature after two days at 2-8° C.; for Physical stability (visual), Day 6: Day 6, room temperature after two days at 2-8° C.; for Physical stability (visual), Day 40: Day 40, returned to 2-8° C.", "procedure": "It is noted that the formulations were similarly to those above; however, CD was added, and further, the amounts of the antioxidants, i.e., ascorbic acid and NAC, were added at three different concentrations, as detailed in Tables 32a-c below. Further, an additional amount of arginine was added to the solution in order to adjust the pH to a physiologically acceptable pH.\nThe formulations prepared as detailed in Tables 32a, 32b and 32c were (a) held at room temperature for two days; (b) transferred to a refrigerator (2-8° C.) for two days; and (c) transferred from the refrigerator to room temperature for an additional two days, during which they were assessed again for precipitants. The formulations were then returned to the refrigerator (2-8° C.) and assessed for precipitants on day 40. The physical stability of each formulation was assessed on the first two days and again on the last two days. The physical stability of the formulations was assessed visually. A clear solution was considered to be stable, while a solution comprising precipitants was considered to be physically unstable. The stability results of the formulations of Tables 32a, 32b and 32c are detailed in Tables 33a, 33b and 33c, respectively."}, "[2]": {"test": "in vitro", "conditions": "human"}, "[3]": {"system": "human plasma", "test": "Protein binding, equilibrium dialysis method", "type": "in vitro ADME", "conditions": "1.0E-05M; 37° C., 4 h", "procedure": "(§1) The protein binding values of various LDAA compounds in their TFA salt form (10^−5M) were tested in human plasma. The equilibrium dialysis technique was used to separate the fraction of the test compound that was unbound from the fraction of the test compound that bound to proteins during the test. The test was performed on 96-well plates in a dialysis block constructed from Teflon™.\n(§2) The protein containing matrix used was human plasma, wherein the assay matrix was human serum albumin and alpha-1 acid glycoprotein. The protein matrix was spiked with each test compound at 10 μM (by default, n=2) with a final DMSO concentration of 1%. The dialysate compartment is loaded with phosphate buffered saline (PBS, pH 7.4), and the sample compartment was loaded with an equal volume of the spiked protein matrix. The dialysis plate was then sealed and incubated at 37° C. for 4 h.\n(§3) Following the incubation, samples were taken from each compartment, diluted with PBS followed by the addition of acetonitrile, after which the samples were centrifuged. The supernatants were collected and analyzed by HPLC-MS/MS. The HPLC tests included a binary LC pump with an autosampler, a C18 column (2×20 mm), and gradient elution. The HPLC conditions were adjusted when necessary.\n(§4) A control sample (n=2) was prepared from the spiked protein matrix in the same manner; however, no dialysis was performed on the control. It is noted that the control sample served as the bases for the recovery determination.\n(§5) Acebutolol, quinidine, and warfarin were used in each assay as reference compounds, wherein it is known that those reference compounds provide low, medium and high human plasma protein binding values, respectively.\n(§6) The % of the tested compound that is bound to proteins and the recovery values were calculated as follows:\n(§7) Protein binding (%)=100×(Areap−Areab)/Areap\n(§8) Recovery (%)=100×(Areap−Areab)/Areac\n(§9) The determination of the recovery % serves as an indicator of reliability of the calculated protein binding value. […] This is most likely due to non-specific binding or degradation of the test compound. It is noted that a recovery of above 60% is considered to be reliable, while under 60% recovery, the results of the test are considered to be unreliable."}, "[4]": {"test": "Protein binding, equilibrium dialysis method", "type": "in vitro ADME, human", "conditions": "human, human plasma, pH 7.4, 1.0E-05M", "procedure": "as §1, §2, §3, §4, §5, §6, §7, §8, §9"}, "[5]": {"conditions": "NB 144-15, ~0.1% Asc + ~0.1% NAC"}, "[6]": {"conditions": "NB 144-18, ~0.4% Asc + ~0.4% NAC"}, "[7]": {"conditions": "NB 144-20, ~0.8% Asc + ~0.8% NAC"}, "[8]": {"conditions": "Caco-2, pH 7.4, Percent Recovery 1st"}, "[9]": {"conditions": "Caco-2, pH 7.4, Percent Recovery 2nd"}, "[10]": {"conditions": "Caco-2, pH 7.4, Percent Recovery Mean"}, "[11]": {"conditions": "Caco-2, pH 7.4, Permeability 1st"}, "[12]": {"conditions": "Caco-2, pH 7.4, Permeability 2nd"}, "[13]": {"conditions": "Caco-2, pH 7.4, Permeability Mean"}}, "note": "Counter-ions that a name gives are not always drawn. Like-named read-outs stand apart in the source and are kept apart here. Non-standard residues stand in square brackets, D forms with d. Residues, ends and D or L forms follow the SMILES beside them. Dopa = N[C@@H](Cc1ccc(O)c(O)c1)C(=O)O", "data": [{"smiles": "NCCCC[C@H](NC(=O)[C@@H](N)Cc1ccc(O)c(O)c1)C(=O)O", "note": "[LD-Lys TFA salt, Levodopa Lysine TFA Salt] (H-[Dopa]-Lys-OH)", "values": [{"measurement": "Physical stability (visual), Day 1", "setting": "[1]; [5]", "value": "Precipitated"}, {"measurement": "Physical stability (visual), Day 2", "setting": "[1]; [5]", "value": "Precipitated"}, {"measurement": "Physical stability (visual), Day 5", "setting": "[1]; [5]", "value": "Precipitated"}, {"measurement": "Physical stability (visual), Day 6", "setting": "[1]; [5]", "value": "Precipitated"}, {"measurement": "Physical stability (visual), Day 40", "setting": "[1]; [5]", "value": "Precipitated"}, {"measurement": "Physical stability (visual), Day 1", "setting": "[1]; [6]", "value": "Stable"}, {"measurement": "Physical stability (visual), Day 2", "setting": "[1]; [6]", "value": "Stable"}, {"measurement": "Physical stability (visual), Day 5", "setting": "[1]; [6]", "value": "Precipitated"}, {"measurement": "Physical stability (visual), Day 6", "setting": "[1]; [6]", "value": "Precipitated"}, {"measurement": "Physical stability (visual), Day 40", "setting": "[1]; [6]", "value": "Precipitated"}, {"measurement": "Physical stability (visual), Day 1", "setting": "[1]; [7]", "value": "Stable"}, {"measurement": "Physical stability (visual), Day 2", "setting": "[1]; [7]", "value": "Stable"}, {"measurement": "Physical stability (visual), Day 5", "setting": "[1]; [7]", "value": "Precipitated"}, {"measurement": "Physical stability (visual), Day 6", "setting": "[1]; [7]", "value": "Precipitated"}, {"measurement": "Physical stability (visual), Day 40", "setting": "[1]; [7]", "value": "Precipitated"}, {"measurement": "recovery at 40 min, 10 μM", "setting": "[2]; [8]", "value": 79, "unit": "%"}, {"measurement": "recovery at 40 min, 10 μM", "setting": "[2]; [9]", "value": 86, "unit": "%"}, {"measurement": "recovery at 40 min, 10 μM", "setting": "[2]; [10]", "value": 82, "unit": "%"}, {"measurement": "Papp B→A at 40 min, 10 μM", "setting": "[2]; [11]", "value": 0.03, "unit": "×10⁻⁶ cm/s"}, {"measurement": "Papp B→A at 40 min, 10 μM", "setting": "[2]; [12]", "value": 0.03, "unit": "×10⁻⁶ cm/s"}, {"measurement": "Papp B→A at 40 min, 10 μM", "setting": "[2]; [13]", "value": "< 0.03", "unit": "×10⁻⁶ cm/s"}, {"measurement": "% Protein Bound 1st", "setting": "[3]", "value": 59.5, "unit": "%"}, {"measurement": "% Protein Bound 2nd", "setting": "[3]", "value": 53.1, "unit": "%"}, {"measurement": "% Protein Bound Mean", "setting": "[3]", "value": 56, "unit": "%"}, {"measurement": "recovery at 4 h, 10 μM", "setting": "[4]; read-out: % Recovery 1st", "value": 12, "unit": "%"}, {"measurement": "recovery at 4 h, 10 μM", "setting": "[4]; read-out: % Recovery 2nd", "value": 19, "unit": "%"}, {"measurement": "recovery at 4 h, 10 μM", "setting": "[4]; read-out: % Recovery Mean", "value": 16, "unit": "%"}]}, {"smiles": "N[C@@H](Cc1ccc(O)c(O)c1)C(=O)N[C@@H](Cc1c[nH]c2ccccc12)C(=O)O", "note": "[LD-Trp TFA salt, Levodopa Tryptophan] (H-[Dopa]-Trp-OH)", "values": [{"measurement": "Physical stability (visual), Day 1", "setting": "[1]; [5]", "value": "Stable"}, {"measurement": "Physical stability (visual), Day 2", "setting": "[1]; [5]", "value": "Stable"}, {"measurement": "Physical stability (visual), Day 5", "setting": "[1]; [5]", "value": "Stable"}, {"measurement": "Physical stability (visual), Day 6", "setting": "[1]; [5]", "value": "Stable"}, {"measurement": "Physical stability (visual), Day 40", "setting": "[1]; [5]", "value": "Stable"}, {"measurement": "Physical stability (visual), Day 1", "setting": "[1]; [6]", "value": "Stable"}, {"measurement": "Physical stability (visual), Day 2", "setting": "[1]; [6]", "value": "Stable"}, {"measurement": "Physical stability (visual), Day 5", "setting": "[1]; [6]", "value": "Stable"}, {"measurement": "Physical stability (visual), Day 6", "setting": "[1]; [6]", "value": "Stable"}, {"measurement": "Physical stability (visual), Day 40", "setting": "[1]; [6]", "value": "Stable"}, {"measurement": "Physical stability (visual), Day 1", "setting": "[1]; [7]", "value": "Stable"}, {"measurement": "Physical stability (visual), Day 2", "setting": "[1]; [7]", "value": "Stable"}, {"measurement": "Physical stability (visual), Day 5", "setting": "[1]; [7]", "value": "Stable"}, {"measurement": "Physical stability (visual), Day 6", "setting": "[1]; [7]", "value": "Stable"}, {"measurement": "Physical stability (visual), Day 40", "setting": "[1]; [7]", "value": "Stable"}, {"measurement": "recovery at 40 min, 10 μM", "setting": "[2]; [8]", "value": 71, "unit": "%"}, {"measurement": "recovery at 40 min, 10 μM", "setting": "[2]; [9]", "value": 82, "unit": "%"}, {"measurement": "recovery at 40 min, 10 μM", "setting": "[2]; [10]", "value": 77, "unit": "%"}, {"measurement": "Papp B→A at 40 min, 10 μM", "setting": "[2]; [11]", "value": 0.01, "unit": "×10⁻⁶ cm/s"}, {"measurement": "Papp B→A at 40 min, 10 μM", "setting": "[2]; [12]", "value": 0.01, "unit": "×10⁻⁶ cm/s"}, {"measurement": "Papp B→A at 40 min, 10 μM", "setting": "[2]; [13]", "value": "< 0.01", "unit": "×10⁻⁶ cm/s"}, {"measurement": "% Protein Bound 1st", "setting": "[3]", "value": 54.8, "unit": "%"}, {"measurement": "% Protein Bound 2nd", "setting": "[3]", "value": 66, "unit": "%"}, {"measurement": "% Protein Bound Mean", "setting": "[3]", "value": 60, "unit": "%"}, {"measurement": "recovery at 4 h, 10 μM", "setting": "[4]; read-out: % Recovery 1st", "value": 68, "unit": "%"}, {"measurement": "recovery at 4 h, 10 μM", "setting": "[4]; read-out: % Recovery 2nd", "value": 74, "unit": "%"}, {"measurement": "recovery at 4 h, 10 μM", "setting": "[4]; read-out: % Recovery Mean", "value": 71, "unit": "%"}]}]}
